According to publication PMC9995496, “A screen for MeCP2-TBL1 interaction inhibitors using a luminescence-based assay” (Scientific Reports, 2023):
Where a name gives a salt, the structure may show the parent alone. Numbered stars: 1 amine (or outer) side, 2 acyl side, 3 side chain; on linkers, the order of the positions; unused ones are H or OH. Bridge positions count the residues as written; N and C are the ends. Square brackets hold non-standard residues; d marks the D form. Peptide text beside a SMILES is read from it. * marks the point of attachment. hTyr(3S-OH,4S-OH,3'-OSO3H) = N[C@H](C(=O)O)[C@H](O)[C@@H](O)c1ccc(O)c(OS(=O)(=O)O)c1; Orn(4R-OH,5R-OH) = O=C([C@H](C[C@@H](O)[C@@H](O)N[*:3])N[*:1])[*:2]; Pro(3S-OH,4S-Me) = C[C@H]1CN[C@H](C(=O)O)[C@H]1O; X1 = CCCCCOc1ccc(-c2cc(-c3ccc(C(=O)*)cc3)no2)cc1; Gln(3R-OH) = NC(=O)C[C@@H](O)[C@H](N)C(=O)O; Hyp = O=C(O)[C@@H]1C[C@@H](O)CN1

These molecules were tested on PRKACA-PRKAR2A interaction (SmBiT-PRKACA / LgBiT-PRKAR2A), protein kinase A. Conditions: 0.5 h, 20 µM; inhibitor.
Parameters: NanoLuc complementation counter-screen in cell extract, PRKACA with PRKAR2A, loss of luminescence, detects NanoLuc interference

Structure (SMILES)	Inh (PKA)
COc1ccc2c(O[C@@H]3C[C@H]4C(=O)N[C@]5(C(=O)NS(=O)(=O)C6CC6)C[C@H]5/C=C\CCCCN(C)C(=O)[C@@H]4C3)cc(-c3nc(C(C)C)cs3)nc2c1C [UM0141629:01, Simeprevir]	16.13

Same assay, conditions: counter-screen for NanoLuc interference, 0.5 h, 20 µM, inhibitor, Inh (PKA)

Structure (SMILES)	Inh (PKA)
CCOC(=O)C1=C[C@@H](OC(CC)CC)[C@H](NC(C)=O)[C@@H](N)C1 [UM0141595:01, Oseltamivir]	0.436%
Nc1nc2[nH]cc(CCc3ccc(C(=O)N[C@@H](CCC(=O)O)C(=O)O)cc3)c2c(=O)[nH]1 [UM0141598:01, Pemetrexed disodium hemipenta hydrate]	0.5825%
CCCC(CCC)C(=O)O [UM0141598:02, Valproic acid sodium salt (Sodium valproate)]	0.874%
CCC(CC)[C@H](NC(C)=O)[C@@H]1[C@H](O)[C@@H](C(=O)O)C[C@H]1NC(=N)N [UM0141600:01, Peramivir]	2.459%
Oc1cccc(-c2nc(N3CCOCC3)c3oc4ncccc4c3n2)c1 [UM0141606:01, PI-103 Hydrochloride]	17.85%
CNC(=O)c1cc(Oc2ccc(NC(=O)Nc3ccc(Cl)c(C(F)(F)F)c3)c(F)c2)ccn1 [UM0141611:01, Regorafenib monohydrate]	6.023%
CNC(=O)c1cc(Oc2ccc(NC(=O)Nc3ccc(Cl)c(C(F)(F)F)c3)c(F)c2)ccn1 [UM0141611:02, Regorafenib]	5.988%
CC(C)Cc1ccc([C@@H](C)C(=O)NS(C)(=O)=O)cc1 [UM0141612:01, Reparixin]	5.153%
CC(C)Cc1ccc([C@@H](C)C(=O)NS(C)(=O)=O)cc1 [UM0141612:02, Reparixin L-lysine salt]	7.24%
CCN(C)C(=O)Oc1cccc([C@H](C)N(C)C)c1 [UM0141620:01, Rivastigmine]	1.357%
N#CC[C@H](C1CCCC1)n1cc(-c2ncnc3[nH]ccc23)cn1 [UM0141622:01, Ruxolitinib phosphate]	28.19%
O=C(Nc1ccc2[nH]nc(-c3ccncc3)c2c1)[C@@H]1CCN(CC(=O)N2CCN(c3ccc(-c4ncccn4)cc3)CC2)C1 [UM0141626:01, SCH772984]	11.73%
CCCc1nn(C)c2c(=O)[nH]c(-c3cc(S(=O)(=O)N4CCN(C)CC4)ccc3OCC)nc12 [UM0141628:01, Sildenafil]	-0.5342%

Same assay, conditions: counter-screen for NanoLuc interference; 0.5 h, 20 µM; inhibitor

Structure (SMILES)	Inh (PKA)
CC1(C)O[C@H]2CC(=O)OC[C@]23[C@H]2CC[C@@]4(C)[C@H](c5ccoc5)OC(=O)[C@H]5O[C@]54[C@]2(C)C(=O)C[C@@H]13 [UM0141579:01, Limonin]	0.3774%
COc1cc(C(=O)N2CCC(N3CCN(C)CC3)CC2)ccc1Nc1ncc2c(n1)N(C)c1ccccc1C(=O)N2C [UM0141580:01, LRRK2-IN-1]	12.15%
O=C1NC(=O)C(c2cnc3ccccn23)=C1c1cn2c3c(cc(F)cc13)CN(C(=O)N1CCCCC1)CC2 [UM0141581:01, LY2090314]	40.49%
Cc1ccc(C(=O)Nc2ccc(Oc3cc4cnn(C)c4cc3-c3cn[nH]c3)c(F)c2)c(=O)n1-c1ccc(F)cc1 [UM0141582:01, LY2801653]	33.02%
C[C@@H](Oc1ccc2[nH]nc(/C=C/c3cnn(CCO)c3)c2c1)c1c(Cl)cncc1Cl [UM0141583:01, LY2874455]	40.12%
O=C1CCC[C@@H]2[C@H]3CCCN4CCC[C@@H](CN12)[C@@H]34 [UM0141584:01, Matrine]	1.794%
CCCCCOc1ccc(-c2cc(-c3ccc(C(=O)N[C@H]4C[C@@H](O)[C@@H](O)NC(=O)[C@@H]5[C@@H](O)[C@@H](C)CN5C(=O)[C@H]([C@H](O)CC(N)=O)NC(=O)[C@H]([C@H](O)[C@@H](O)c5ccc(O)c(OS(=O)(=O)O)c5)NC(=O)[C@@H]5C[C@@H](O)CN5C(=O)[C@H]([C@@H](C)O)NC4=O)cc3)no2)cc1 [UM0141585:01, Micafungin sodium] (X1-[Orn(4R-OH,5R-OH)]T[Hyp][hTyr(3S-OH,4S-OH,3'-OSO3H)][Gln(3R-OH)][Pro(3S-OH,4S-Me)]; lactam 1-C)	7.755%
NC(=O)c1cccc2cn(-c3ccc([C@@H]4CCCNC4)cc3)nc12 [UM0141586:01, MK-4827]	5.692%
C=C[C@@H]1C[C@]1(NC(=O)[C@@H]1C[C@@H]2CN1C(=O)[C@H](C(C)(C)C)NC(=O)O[C@@H]1C[C@H]1CCCCCc1nc3ccc(OC)cc3nc1O2)C(=O)NS(=O)(=O)C1CC1 [UM0141587:01, MK-5172]	6.735%
COc1c(Cl)cc2c([nH]c3cnccc32)c1NC(=O)c1cccnc1C [UM0141589:01, MLN120B]	5.314%
Cc1c(O)cccc1C(=O)N[C@@H](CSc1ccccc1)[C@H](O)CN1C[C@H]2CCCC[C@H]2C[C@H]1C(=O)NC(C)(C)C [UM0141590:01, Nelfinavir Mesylate]	3.843%
CNC(=O)c1c(-c2ccc(F)cc2)oc2cc(N(CCO)S(C)(=O)=O)c(C3CC3)cc12 [UM0141591:01, Nesbuvir]	3.406%
C[C@H](Cc1ccc(O)c(O)c1)[C@@H](C)Cc1ccc(O)c(O)c1 [UM0141592:01, Nordihydroguaiaretic acid]	80.65%
CCC(CC)O[C@@H]1C=C(C(=O)O)C[C@H](N)[C@H]1NC(C)=O [UM0141596:01, Oseltamivir acid]	1.334%
COC(=O)[C@H](Cc1cccc(C(=N)N)c1)[C@@H](C)NC(=O)c1ccc(-c2cc[n+]([O-])cc2)cc1 [UM0141597:01, Otamixaban]	3.513%
O=C(O)CCCc1ccccc1 [UM0141598:03, Sodium Phenylbutyrate]	1.56%
OC[C@H]1O[C@@H](n2cnc3c2N=CNC[C@H]3O)C[C@@H]1O [UM0141599:01, Pentostatin]	1.284%
Cc1nc(Nc2n[nH]c3c2CN(C(=O)N[C@H](CN(C)C)c2ccccc2)C3(C)C)c2sccc2n1 [UM0141601:01, PF-3758309]	66.65%
Nc1nccc(-c2c(-c3ccc(F)cc3)ncn2C2CCCCC2)n1 [UM0141603:01, PF-670462]	48.77%
O=C(CCN1CCN(C(=O)OCc2cc(Cl)cc(Cl)c2)CC1)c1ccc2[nH]c(=O)oc2c1 [UM0141604:01, PF-8380]	13.11%

Structure (SMILES)	Inh (PKA)
O=C1NCCc2[nH]c(-c3ccncc3)cc21 [UM0141605:01, PHA-767491]	1.427%
CNC(=O)c1ccccc1Nc1cc(Nc2ccc(N3CCOCC3)cc2OC)ncc1C(F)(F)F [UM0141607:01, PND-1186]	14.93%
CC1=CC(=O)C(C(C)C)=C/C1=N/OC(=O)c1ccccc1C [UM0141608:01, Poloxin]	31.48%
NC(=O)c1cnc(N[C@@H]2CCCC[C@@H]2N)nc1Nc1cccc(-n2nccn2)c1 [UM0141609:01, PRT062607 Hydrochloride]	22.19%
CC(C)OC(=O)[C@H](C)N[P@](=O)(OC[C@H]1O[C@@H](n2ccc(=O)[nH]c2=O)[C@](C)(F)[C@@H]1O)Oc1ccccc1 [UM0141610:01, PSI-7977]	2.04%
Cc1cccc(-c2[nH]ncc2-c2ccc3ncccc3n2)n1 [UM0141613:01, RepSox]	2.359%
c1nc2c(NC3CCCCC3)nc(Nc3ccc(N4CCOCC4)cc3)nc2[nH]1 [UM0141614:01, Reversine]	32.72%
CCOc1cc(C(C)(C)C)ccc1C1=N[C@@](C)(c2ccc(Cl)cc2)[C@@](C)(c2ccc(Cl)cc2)N1C(=O)N1CCN(CCCS(C)(=O)=O)CC1 [UM0141616:01, RG7112]	18.3%
COc1cc(C(=O)O)ccc1NC(=O)[C@@H]1N[C@@H](CC(C)(C)C)[C@](C#N)(c2ccc(Cl)cc2F)[C@H]1c1cccc(Cl)c1F [UM0141617:01, RG7388]	51.62%
Cc1cc(/C=C/C#N)cc(C)c1Nc1ccnc(Nc2ccc(C#N)cc2)n1 [UM0141618:01, Rilpivirine]	30.56%
COC(=O)N(C)c1c(N)nc(-c2nn(Cc3ccccc3F)c3ncccc23)nc1N [UM0141619:01, Riociguat]	2.487%
O=C(NCc1cccc(O)c1)Nc1nc(-c2ccncc2)cs1 [UM0141621:01, RKI-1447]	-11%
CC(C)=CCC/C(C)=C/CC/C(C)=C/CSc1ccccc1C(=O)O [UM0141623:01, Salirasib]	61.94%
CC(C)(C)NC(=O)[C@@H]1C[C@@H]2CCCC[C@@H]2CN1C[C@@H](O)[C@H](Cc1ccccc1)NC(=O)[C@H](CC(N)=O)NC(=O)c1ccc2ccccc2n1 [UM0141624:01, Saquinavir mesylate]	9.291%
COc1nccc(-c2c(-c3ccc(F)cc3)ncn2[C@H]2CC[C@H](O)CC2)n1 [UM0141625:01, SB 239063]	17.29%
CCOc1ccc(Oc2ccc(OCc3cc(F)ccc3F)cc2)c(N)c1 [UM0141627:01, SEA0400]	3.449%
O=C1c2ccccc2C(=O)c2oc(-c3ccccc3)nc21 [UM0141630:01, SJB2-043]	4.073%
O=C1c2ccc(Nc3ccc(F)cc3F)cc2CCc2ccc(OC[C@H](O)CO)cc21 [UM0141631:01, Skepinone-L]	17.25%
CC(C)NC(=O)COc1cccc(-c2nc(Nc3ccc4[nH]ncc4c3)c3ccccc3n2)c1 [UM0141632:01, SLx-2119]	49.23%
Cc1c[nH]c(/C=C2\C(=O)Nc3ccccc32)c1CCC(=O)O [UM0141633:01, SU 5402]	46.56%
